Reference: patent US20240336647A1, “NUCLEOSIDE ANALOGS AND THERAPEUTIC USE THEREOF” (priority 2023, published 2024)
“Also recorded” adds a separate entry of the source.

Experiments:
SARS-COV-2 RdRp [1] = target: T1, SARS-COV-2 RdRp (Severe acute respiratory syndrome coronavirus 2, UniProt P0DTD1); test: Primer extension to determine if m1A is incorporated onto RNA by RdRp via m1ATP (PAGE); assay type: biochemical; conditions: CTP, 37° C.
Description: Determine if the m1A or m3C modification could be incorporated onto RNA or DNA by a polymerase via m1ATP or m3CTP, respectively: The SARS-COV-2 RdRp with m1ATP is used as the example. Sources of materials used in the experiment can be found in reference [Apostle et al Preprints doi:10.20944/preprints202311.1268.v1]. RNA duplex [F038]-[F039] (SEQ ID NOs: 12 and 13, FIG. 2) was prepared by annealing the two RNAs using the following procedure. The solution of RNAs [F038] (SEQ ID NO: 12, 20 μM, all concentrations are final) and [F039] (SEQ ID NO: 13, 20 μM) in Tris-HCl (10 mM), and KCI (100 mM) was heated at 94° C. for 5 min. The solution was then cooled to RT slowly giving the [F038]-[F039] (SEQ ID NOs: 12 and 13) duplex. […] To another tube containing only the RNA duplex in 10 μL nuclease free water ([…], corresponding to the experiment of lane 1 in FIG. 2) were also added the EDTA and loading dye solutions (same quantities as above, final volume 30 μL). […]
The results of the primer extension reaction is shown in FIG. 2, gel image for determining if m1A could be incorporated onto RNA by SARS-COV-2 RdRp via m1ATP. […] The reaction products were analyzed with PAGE. […]

SARS-COV-2 RdRp [2] = target: T1, SARS-COV-2 RdRp; assay type: biochemical

SMILES	inhibition of RdRp by m1ATP (SARS-COV-2 RdRp [1]; m1ATP only for 15 min, then ATP, GTP and UTP)	incorporation of m1A into RNA by RdRp via m1ATP (SARS-COV-2 RdRp [1]; m1ATP, GTP, UTP 0.5 mM each, no ATP, 2 h)	effect of the modification in template RNA on RdRp catalytic activity (SARS-COV-2 RdRp [2])
C[n+]1cnc2c(ncn2[C@@H]2O[C@H](COP(=O)(O)OP(=O)(O)OP(=O)(O)O)C(O)C2O)c1N (stereo partly drawn) [m1ATP]	does not inhibit RdRp	m1A can be incorporated into RNA by SARS-COV-2 RdRp via m1ATP; also recorded: m1A could indeed be efficiently incorporated into RNA by SARS-COV-2 RdRp; also recorded: m1A can be incorporated onto RNA	
C[n+]1c(N)ccn([C@@H]2O[C@H](CO)C(O)C2O)c1=O (stereo partly drawn) [m3C, N3-methylcytidine]			has minimal impact; also recorded: can be tolerated by the RdRp; also recorded: has little effect on the RdRp
